According to patent US9533986B2, “Bicyclic dihydropyridone kinase inhibitors” (PORTOLA PHARMACEUTICALS, INC., priority 2012, dated 2017):

biological target: T1, full length active recombinant SYK enzyme (Homo sapiens, UniProt P43405); assay: Inhibition of Syk tyrosine phosphorylation activity (LANCE TR-FRET kinase assay); format: biochemical; settings: 1 nM active SYK enzyme, 550 nM SYK-substrate, 100 μM ATP, 1 hour at room temperature
T1 construct: full length active recombinant SYK enzyme (Millipore, Calif.); purchased Millipore
Experimental: The in vitro and in vivo human JAK/Syk activities of the inventive compounds can be determined by various procedures known in the art, such as a test for their ability to inhibit the activity of human plasma JAK/Syk. […] The IC50 value is the concentration of the compound required to provide 50% inhibition of human JAK/Syk proteolytic activity.
An in vitro assay for detecting and measuring inhibition activity against Syk is as follows.
SYK tyrosine phosphorylation activity is measured using the LANCE™ Technology developed by Perkin Elmer Life and Analytical Sciences (Boston, Mass.). LANCE™ refers to homogeneous time resolved fluorometry applications using techniques such as time-resolved fluorescence resonance energy transfer assay (TR-FRET) (see generally for procedures in Perkin Elmer Application Note—How to Optimize a Tyrosine Kinase Assay Using Time Resolved Fluorescence-Based LANCE Detection, wwww.perkinelmer.com/lifesciences). The assay principle involves detection of a phosphorylated substrate using energy transfer from a phosphospecific europium-labeled antibody to streptavidin-allophycocyanin as an acceptor.
Molecules are reconstituted in 30% DMSO and serially diluted 1:3 with the final dilution containing DMSO in the absence of the candidate molecule. The final DMSO concentration in the assay is 3%. Kinase assays are performed as a two part reaction. The first reaction is a kinase reaction which comprises a candidate molecule, full length active recombinant SYK enzyme (Millipore, Calif.), and biotin-DEEDYESP-OH, a biotin-labeled SYK-specific substrate. The second reaction involves termination of the kinase reaction and the simultaneous addition of the detection reagents—europium-labeled anti-phosphotyrosine reagent (Eu-W1024-PY100, Perkin Elmer, Boston, Mass.) and Streptavidin-Allophycocyanin detection reagent (SA-APC, Prozyme, CA). The kinase reaction is performed in a black U-bottom 96-well microtitre plate. The final reaction volume is 50 μL and contains a final concentration of 1 nM active SYK enzyme, 550 nM SYK-substrate, and 100 μM ATP diluted in a buffer containing 50 mM Tris pH 7.5, 5 mM MgCl2, and 1 mM DTT. The reaction is allowed to proceed for 1 hour at room temperature. The quench buffer contains 100 mM Tris pH 7.5, 300 mM NaCl2, 20 mM EDTA, 0.02% Brij35, and 0.5% BSA. […] Detection of the phosphorylated substrate in the absence and presence of inhibitors is measured in the TR-FRET instrument, Analyst HT (Molecular Probes, Sunnyvale, Calif.) and the condition for measurements are set using CriterionHost Release 2.0 (Molecular Probes, Sunnyvale, Calif.). […] Inhibition of SYK-tyrosine kinase activity is calculated as the maximum response observed in the presence of inhibitor, compared to that in the absence of inhibitor. […]

Row | SMILES | IC50 [nM]
1 | Cc1cccc(Nc2nc(N[C@@H]3CCCC[C@@H]3N)nc3c2C(=O)NCC3)c1 [Example 1, 2-(((1R,2S)-2-aminocyclohexyl)amino)-4-(m-tolylamino)-7,8-dihydropyrido[4,3-d]pyrimidin-5(6H)-one] | ≤ 100
2 | N[C@H]1CCCC[C@H]1Nc1nc2c(c(Nc3cccc(-c4ncccn4)c3)n1)C(=O)NCC2 [Example 4, 2-(((1R,2S)-2-aminocyclohexyl)amino)-4-((3-(pyrimidin-2-yl)phenyl)amino)-7,8-dihydropyrido[4,3-d]pyrimidin-5(6H)-one] | ≤ 250
3 | N[C@H]1CCCC[C@H]1Nc1nc2c(c(Nc3cccc(-n4nccn4)c3)n1)C(=O)NCC2 [Example 6, 4-((3-(2H-1,2,3-triazol-2-yl)phenyl)amino)-2-(((1R,2S)-2-aminocyclohexyl)amino)-7,8-dihydropyrido[4,3-d]pyrimidin-5(6H)-one] | ≤ 100
4 | COc1ccc(Nc2nc(N[C@@H]3CCCC[C@@H]3N)nc3c2C(=O)NCC3)cc1C(F)(F)F [Example 7, 2-(((1R,2S)-2-aminocyclohexyl)amino)-4-((4-methoxy-3-(trifluoromethyl)phenyl)amino)-7,8-dihydropyrido[4,3-d]pyrimidin-5(6H)-one] | > 250
